# pKi: −log10 of the molar value.
# Target: Cannabinoid receptor 1 (Homo sapiens, UniProt P21554)
# Experiment: Displacement of [3H]-CP-55940 from human CB1 receptor transfected in CHOK1 cells after 90 mins by liquid scintillation counting analysis
# Format: cell-based, CHO-K1
# Sequence of Cannabinoid receptor 1 (P21554 whole entry): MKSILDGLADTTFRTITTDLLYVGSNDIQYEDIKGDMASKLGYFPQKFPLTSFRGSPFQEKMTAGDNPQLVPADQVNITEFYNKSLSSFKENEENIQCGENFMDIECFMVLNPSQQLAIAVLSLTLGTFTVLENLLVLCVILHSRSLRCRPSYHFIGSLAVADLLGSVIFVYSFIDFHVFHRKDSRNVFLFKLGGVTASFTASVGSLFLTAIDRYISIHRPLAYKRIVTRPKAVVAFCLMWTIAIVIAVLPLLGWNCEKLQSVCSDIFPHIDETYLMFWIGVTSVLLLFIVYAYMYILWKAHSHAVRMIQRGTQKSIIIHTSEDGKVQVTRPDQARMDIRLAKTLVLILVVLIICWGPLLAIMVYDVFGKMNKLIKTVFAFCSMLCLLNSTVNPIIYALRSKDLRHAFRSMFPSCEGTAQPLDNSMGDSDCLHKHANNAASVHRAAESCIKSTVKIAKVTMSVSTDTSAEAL
row,Compound,pKi
1,CCOCCn1cc(C(=O)NCCc2ccccc2)c(=O)c2cccc(OC)c21,< 5.00
2,CCCCn1cc(C(=O)NC2CCCC2)c(=O)c2cccc(OC)c21,< 5.00
3,CCCCn1cc(C(=O)NC23CC4CC(CC(C4)C2)C3)c(=O)c2cccc(OC)c21,< 5.00

# Reference: ChEMBL document CHEMBL3407340, “Synthesis, radiolabeling and evaluation of novel 4-oxo-quinoline derivatives as PET tracers for imaging cannabinoid type 2 receptor” (Eur J Med Chem, 2015)
